The record followed here is patent US20090163436A1, “METHODS FOR DELIVERY OF NUCLEIC ACIDS” (Nucleonics, Inc., priority 2002, published 2009).

Where two headings read alike, the source gives them in different places.

Series [1] in a line: Example 4: oral delivery of luciferase plasmid microemulsions. The procedure: The objective is to develop microemulsion (ME) formulations designed for oral delivery of DNA. Microemulsions for oral delivery are prepared using a mixture that contains DNA or other nucleic acids (2.0 mg/mL in, e.g., 30 mM citrate, 150 mM NaCl pH 6.8 buffer) and benzalkonium chloride (0.1%). The mixture is further mixed in equal volumes to a mixture that contains seven parts of Labrasol™ (Gattefosse, Saint-Priest Cedex, France), one part of Lauroglycol (polypropylene esters such as Lauroglycol FCC for oral administration from Gattefosse, France) and two parts of ethanol. Other formulations contain bupivacaine at 0.25%, octyl spermine at 2.0 mg/mL, or cholesteryl spermine at 2.0 mg/mL, instead of benzalkonium chloride and lauroglycol in the above formulation. […] The DNA tested is an expression plasmid for luciferase (Promega Corp.). […] The formulation (100 uL) containing DNA is fed to mice (5 in one formulation group) by intubating the stomach. Five days following administration, several organs including kidney, liver, lung, intestinal segments (ileum, duodenum, small intestine and large intestine), brain, heart, and spleen are harvested and snap frozen. The tissues are homogenized in luciferase buffer (Promega Corp., Madison, Wis.) using a polytron. Luciferase activity is determined using a luminometer (Berthold) and in the assay buffer (Promega Corp., Madison, Wis.).

Series [2] is described as follows: Example 4: phase location of DNA in cationic amphiphile emulsions. As to conditions: formulation containing the named cationic amphiphile. The format is physicochemical.
Series [3] can be described thus: In vivo transfection with local anesthetic complexed DNA versus naked DNA. As to conditions: IL12 DNA complexed with 0.25% bupivacaine. The text has this:
As compared to cationic lipids, simple structures derived from water-soluble amphiphiles have a higher probability of forming transfecting structures that are uniform and homogenous, which is expected to result in increased efficiency, predictability, and potency. We selected cationic amphiphiles that are membrane active, such as the local anesthetics, e.g., bupivacaine (see U.S. Pat. No. 6,383,512, “Vesicular complexes and methods of making and using the same,” which describes compositions comprising lamellar vesicles that comprise a local anesthetic, e.g., bupivacaine, and a nucleic acid molecule). In particular, this reference describes compositions and methods for delivery of nucleic acid molecules that are antisense, ribozyme, or triplex forming nucleic acid molecules, as well as nucleic acid molecules that encode proteins (e.g., non-immunogenic therapeutically effective proteins, and immunogenic proteins designed to elicit a desired immune response in a host). Experiments were carried out to determine whether such vesicular complexes could be used to deliver dsRNA expression constructs capable of eliciting RNAi. […] Additionally, these are currently used in humans, and their toxicity/dose profiles are well characterized. In contrast, the associated toxicity of lipids that transfect efficiently in vitro may preclude their use in vivo. […]

Series [4] has as its system cells derived from the spleen. As to conditions: IV administration, separate study.
Description: The complexes are prepared as described above except that 5 mM citrate and 150 mM NaCl are used as buffer. To determine the transfection efficiency, the spleen is removed from mice on day 5. Cells are recovered by crushing the spleen on a slide and observing EGFP fluorescence by fluorescent microscopy. The cell type is identified by cross-staining staining the preparation with labeled MAC1 antibody (macrophage identification) or labeled mannosylated BSA (identification of mannose receptor containing cells) (Current Protocols in Immunology).
In the study evaluating the distribution and blood clearance of DNA following an IV administration, labeled DNA is separately complexed with modified spermines (only monocomplexes of any one spermine is used in this study). Mannose (mono and bis) and lactose (mono and tri) spermines are used separately in these complexes. Unmodified spermine and spermidine complexes with DNA serve as controls.
Series [5] in a line: Example 3: tissue distribution of labeled DNA after IV administration. As to conditions: for total amount of CPMs in all of the organs combined, rank order: 5 days following IV, lung, heart, kidney, spleen, liver.
Description: (§1) DNA is complexed with spermines as described in the previous two examples at the optimal charge ratio of 0.8 with either the monolactosyl, trilactosyl, or mannosyl (mono and bis) spermine to achieve a final DNA concentration of 1.0 mg/mL in citrate buffer at 5 mM and 150 mM NaCl.
(§2) The mice, 5 per group, are injected intravenously through the tail vein (100 uL). Mice are sacrificed at various times as indicated for serum analysis of plasmid DNA to determine blood clearance. To determine the amount of plasmid in blood, one mL of serum is placed in liquid scintillation counters with fluor to quantify the CPMs associated with each sample. In order to determine tissue distribution, various organs are harvested on day 5 (peak of expression from previous studies) and snap frozen. Whole organs from the animals are harvested livers from 3 animals in the group of 5 are ground in mild alkali (100 mM KOH) and neutralized with acid (HCl) prior to scintillation counting. Livers from the remaining two animals are embedded in paraffin and sectioned as described in Example 2 and stained for betagalactosidase activity, as described.
(§3) In the second part of the study, distribution of DNA amongst some of the major organs is evaluated 5 days following IV administration. A simple tissue grind and scintillation counting is carried out. The organs chosen (lung, heart, kidney, spleen, and liver) for analysis represent the major capillary beds.
A short description of series [6]: Example 3: blood clearance of 14C-labeled plasmid DNA after IV administration.
Description: Bacteria containing the beta-galactosidase expression plasmid are grown in minimal M9 media (Miller, CSHS laboratory Press) in glucose as the sole carbon source overnight. The cells are washed in minimal media thrice through centrifugation and resuspension in M9 media without the carbon source, and resuspended in M9 with uniformally 14C-labeled ribose (NEN, MA) and deoxynucleosides (NEN, MA) for 3 hours. The cells are harvested, and the plasmid is isolated using Qiagen miniprep columns (Qiagen, Inc., CA). The labeled plasmid is mixed with unlabeled plasmid to achieve a specific activity of 3 million CPM per 100 ug plasmid.
as §1
The mice, 5 per group, are injected intravenously through the tail vein (100 uL). Mice are sacrificed at various times as indicated for serum analysis of plasmid DNA to determine blood clearance. To determine the amount of plasmid in blood, one mL of serum is placed in liquid scintillation counters with fluor to quantify the CPMs associated with each sample. […]
Series [7] deals with liver cells (hepatocytes, Kupfer cells). As to conditions: IV; for liver cell type transfected: betagal staining of liver slices. As to the method:
The mixture is injected intravenously (100 uL) of 5 mice for each formulation variant. Formulations variants included different charge ratios and various lactosyl spermine to cholesteryl spermine ratios. At 5 days postinjection, when in vivo plasmid expression peaks, the mice are sacrificed, and their livers are removed and snap frozen for histological analysis. Several slices of the liver tissue both near and farther from the major blood vessels and the bile ducts are embedded into paraffin and sectioned using a microtome. The tissue slices are stained using X-gal (an enzymatic substrate for betagalactosidase). The liver tissue slices are stained using labeled lactosylated BSA, as a cross stain to identify hepatocytes (asialoglycoprotein receptor). The slides are viewed under an UV fluoroscent microscope to detect the label fluorescence, and the betgal stain is observed under light microscopy. Control mice are administered “naked” DNA free of added complexing agents and DNA complexed with either lactosyl spermine or cholesteryl spermine, but not both.

The subject of series [8] is peritoneal cells (macrophages, dendritic cells).
Description: Peritoneal fluid was isolated from mice. Plasmid DNA designed to express the green fluorescent protein (GFP) in mammalian cells was complexed with a mixture of the two spermines, mannosyl-mannosyl-spermine and cholesteryl spermine, at different ratios. The complexes were applied to peritoneal cells in culture. The fluorescence intensity of the cells were recorded. The complexes that were prepared for the ex vivo study were injected into the peritoneal cavity of mice. Four and five days following the injection, the cells were collected from the peritoneal cavity and spun down on slides and their ability to fluoresce was determined. The fluorescence intensities were recorded visually.
Labeled antibodies to defined cell surface markers were used to identify the cell type.
The conditions of series [9]: mouse, in vivo, iv.
Description: as §1, §2, §3
In a further series the test system is IL-12 p40. The series is described as follows: Example 5: serum IL-12 p40 ELISA after intramuscular IL-12 plasmid in Balb/C mice. As to conditions: mouse, in vivo. The procedure:
Expression of the murine IL-12 transgenes was achieved through the use of vectors containing the HCMV IE promoter and SV40 polyadenation signal. ELISA of serum IL-12 p40 levels affords a facile system to analyze expression levels and the effectiveness of the administered DNA. p40 is one of the two polypeptide chains comprising IL-12.
In all of the RNAi studies described here using IL12 DNA (IL12, dsRNA producing vector and vector encoding T7 RNA polymerase), IL12 DNA was administered as a complex with bupivacaine, a local anesthetic, since higher in vivo transfection efficiencies (˜3×) are achieved with this complex over those mediated by naked DNA. […]
In another set of experiments, murine IL-12 p40 expression in sera was monitored in mice following intramuscular injection of a 100 ug dose of murine IL-12 expression plasmids or in naïve mouse controls that were not injected. […]
Murine IL-12 p40 serum expression was monitored following intramuscular injection of 100 ug IL-12 expression plasmids in mice injected at days 0 and 150 or in mice injected only at day 150. […]
On the technique in general: ELISA stands for enzyme-linked immunosorbent assay.

As for `CCCCN1CCCCC1C(=O)Nc1c(C)cccc1C` (centres unmarked) [bupivacaine, reference compound], the “systemic absorption of DNA” value in [1] (mouse, in vivo, po) is given as “Maximal systemic absorption”. The “phase of the oil in water emulsion that holds the DNA” value (“phase of the oil” below) in [2] is given as “in the oil phase”. The “in vivo transfection efficiency over naked DNA” value in [3] was approximately 3 ×.

As to octyl spermine, the “systemic absorption of DNA” value in series [1] (mouse, in vivo, po) is reported as “Maximal systemic absorption”. The “phase of the oil” value in [2] was “in the oil phase”.

As to `CC(=O)O.CC(=O)O.CC(=O)O.CC(=O)O.NCCCN(CCCCCNC(=O)CCS[C@H]1O[C@H](CO)[C@@H](O)[C@H](O)[C@@H]1O)CCCCN(CCCN)CCCCCNC(=O)CCS[C@H]1O[C@H](CO)[C@@H](O)[C@H](O)[C@@H]1O` [bismannosyl spermine, N^4,N^8-bis (5-N-(α-3′-propionamido thiomannoside)pentyl)-spermine tetraacetate], the “cells taking up the complexes” value in series [4] was “taken up exclusively by cells of the macrophage and dendritic cell lineages”. In addition, the “total amount of CPMs in all of the organs combined, rank order” value in series [5] is listed as “trilactosyl>monolactosyl≅bismannosyl≅monomannosyl>>>controls”. In addition, in [6] (DNA monocomplex), the “blood clearance slower than trilactosyl spermine complexes” value is on record as 50-100 times. The “blood clearance of DNA” value in [6] (DNA monocomplex with the named spermine, charge ratio 0.8) is “rapid clearance”.

As for lactosyl spermine, the “liver cell type transfected” value in series [7] was “primarily transfect hepatocytes”. For the same molecule, in series [7] (liver sections, day 5), the “DNA internalization, cell type” value is listed as “exclusively into hepatocytes”. Also, the betagalactosidase expression result in series [7] (liver sections, no cholesteryl spermine in complex) was “poor”. Further, the “retention of DNA” value in series [5] (IV, DNA monocomplex with modified spermine) was 30%.

On to mannosyl spermine, for which the “liver cell type transfected” value in series [7] is given as “transfect Kupfer cells”. In addition, the “expression from the internalized plasmid” value in series [8] (GFP plasmid) is “observed only when cholesteryl spermine was included”. Also, the “internalization of labeled DNA particles” value in [8] (all of the tested ratios) is reported as “internalized”. For the same molecule, the “retention of DNA” value in series [9] was found to be 85%.

Consider `CC(C)CCC[C@@H](C)[C@H]1CC[C@H]2[C@@H]3CC=C4C[C@@H](OC(=O)NCCCCCN(CCCN)CCCCNCCCN)CC[C@]4(C)[C@H]3CC[C@]12C.Cl` [cholesteryl spermine, N^4-(5-N-(3β-O-carbamoyl-5-cholestene)-1-pentyl)-spermine Hydrochloride], for which the “systemic absorption of DNA” value in series [1] (oral microemulsion containing the named cationic amphiphile) was “Maximal systemic absorption”. The “phase of the oil” value in series [2] is on record as “in the oil phase”.

With “N^4-(5-(trilactosyllysyllysyl) amidopentyl spermine triacetate [trilactosyl spermine]”, the “total amount of CPMs in all of the organs combined, rank order” value in [5] is reported as “trilactosyl>monolactosyl≅bismannosyl≅monomannosyl>>>controls”.

Regarding benzalkonium chloride, the “systemic absorption of DNA” value in series [1] (mouse, in vivo, po) was “Maximal systemic absorption”. Further, in series [2], the “phase of the oil” value is “in the oil phase”.

B1: recombinant murine IL-12: recombinant murine IL-12 protein, 50 ug at day 0 (protein, UniProt P43431 23-215; P43432 23-335, looked up)
Interleukin-12 subunit alpha: RVIPVSGPARCLSQSRNLLKTTDDMVKTAREKLKHYSCTAEDIDHEDITRDQTSTLKTCLPLELHKNESCLATRETSSTTRGSCLPPQKTSLMMTLCLGSIYEDLKMYQTEFQAINAALQNHNHQQIILDKGMLVAIDELMQSLNHNGETLRQKPPVGEADPYRVKMKLCILLHAFSTRVVTINRVMGYLSSA
Interleukin-12 subunit beta: MWELEKDVYVVEVDWTPDAPGETVNLTCDTPEEDDITWTSDQRHGVIGSGKTLTITVKEFLDAGQYTCHKGGETLSHSHLLLHKKENGIWSTEILKNFKNKTFLKCEAPNYSGRFTCSWLVQRNMDLKFNIKSSSSSPDSRAVTCGMASLSAEKVTLDQRDYEKYSVSCQEDVTCPTAEETLPIELALEARQQNKYENYSTSFFIRDIIKPDPPKNLQMKPLKNSQVEVSWEYPDSWSTPHSYFSLKFFVRIQRKKEKMKETEEGCNQKGAFLVEKTSTEVQCKGGNVCVQAQDRYYNSSCSKWACVPCRVRS
Take B1: the “effect of pre-treatment on IL-12 expression” value in the series with IL-12 p40 is reported as “does not prevent subsequent expression”.
